These results are taken from US9296734B2 (AMGEN INC., priority 2013, dated 2016).

SMILES strings stand for the structures. pIC50: −log10 of the molar value. Where two headings read alike, the source gives them in different places. Bounds are passed on as bounds.

Experiment [1] deals with Cathepsin D (Cat D) (Homo sapiens (Human), UniProt P07339). Description: In vitro enzymatic Cathepsin D (Cat D) FRET assay. The experiment is classed as biochemical. Particulars: read-out: CatD IC50. In a few lines: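 CHO-expressed recombinant Cat D cleaves a fluorophore/quencher FRET peptide (20 nM) in 0.05 M citrate pH 3.5, 5 mM CHAPS, 10% DMSO final, over 1 h. Tris addition neutralizes pH to stop the reaction; fluorescence read at excitation 500 nm, emission 580 nm.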

For experiment [2], the system named is Abeta 40 in CSF and brain. Kind of experiment: In vivo inhibition of beta-secretase: Abeta 40 reduction in CSF and brain of the rat. The note with it: 10 mpk (unless otherwise noted), after 4 hrs. An excerpt: In Vivo Inhibition of Beta-Secretase
Several animal models, including mouse, rat, dog, and monkey, may be used to screen for inhibition of beta-secretase activity in vivo following administration of a test compound sample. Animals used in this invention can be wild type, transgenic, or gene knockout animals. […] A separate group of animals receive 2% hydroxypropyl methylcellulose, 1% Tween80 alone, containing no test compound, and serve as a vehicle-control group. At the end of the test period, animals are sacrificed and brain tissues, plasma or cerebrospinal fluid are collected. […] Homogenates are centrifuged at 355,000 g, 4° C. for 30 minutes. CSF or brain supernatants are then analyzed for the presence of A-beta peptide by specific sandwich ELISA assays based on ECL (Electrochemiluminescence) technology. For example, rat Abeta40 is measured using biotinylated-4G8 (Signet) as a capture antibody and Fab40 (an in-house antibody specific to the C-terminal of Abeta40) as a detection antibody.
Actual vehicles used: Oral: 2% HPMC, 1% Tween80, pH 2.2

Experiment [3] addresses Beta Secretase enzyme (BACE) (Homo sapiens (Human), UniProt P56817). Kind of experiment: In vitro enzymatic BACE FRET assay. In kind it is biochemical. The note with it: average; read-out: BACE 1 FRET assay IC50. In a few lines: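 Reactions ran in 0.05 M acetate pH 4.2 with 10% DMSO final and 100 uM genapol. They were started with 50 nM peptide FRET substrate (fluorophore and quencher flanking the BACE cleavage site) and incubated one hour. Tris addition raised the pH to neutral to stop the reaction before fluorescence reading.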

The test system of experiment [4] is Aβ40 in conditioned medium of cells stably expressing Amyloid Precursor Protein (APP). Description: In vitro BACE cell-based assay (Aβ40 sandwich ELISA). Particulars: Homo sapiens. A digest of the protocol: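 Secreted Aβ40 was quantified by sandwich ELISA (pAb40 capture, biotinylated 6E10 detection, Europium time-resolved fluorescence). IC50 derived from percent inhibition versus concentration.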

The mark [5] stands for this setting: Abeta 40, rat CSF, read-out: % reduction of rat CSF levels at 10 pmk.
The mark [6] stands for this setting: Abeta 40, rat brain, read-out: % reduction of rat brain levels at 10 mpk.
Where [7] appears, read: average IC50, cathepsin D enzyme assay.
Where [8] appears, read: HEK293, HEK cells, average, read-out: HEK cell assay IC50.
The mark [9] stands for this setting: HEK293, read-out: HEK cell assay IC50.

Sequence of Cathepsin D (Cat D) (P07339 65-412, species assumed): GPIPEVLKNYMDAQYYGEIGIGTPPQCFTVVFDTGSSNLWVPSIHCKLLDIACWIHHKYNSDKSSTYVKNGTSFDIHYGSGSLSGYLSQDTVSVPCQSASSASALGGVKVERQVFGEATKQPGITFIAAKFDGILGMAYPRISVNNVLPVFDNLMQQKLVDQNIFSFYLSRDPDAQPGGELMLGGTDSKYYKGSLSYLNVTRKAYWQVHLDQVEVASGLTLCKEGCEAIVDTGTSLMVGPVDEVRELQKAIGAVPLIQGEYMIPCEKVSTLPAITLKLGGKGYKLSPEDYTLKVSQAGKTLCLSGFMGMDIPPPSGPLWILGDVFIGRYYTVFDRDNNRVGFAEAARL
Sequence of Beta Secretase enzyme (BACE) (P56817 46-501): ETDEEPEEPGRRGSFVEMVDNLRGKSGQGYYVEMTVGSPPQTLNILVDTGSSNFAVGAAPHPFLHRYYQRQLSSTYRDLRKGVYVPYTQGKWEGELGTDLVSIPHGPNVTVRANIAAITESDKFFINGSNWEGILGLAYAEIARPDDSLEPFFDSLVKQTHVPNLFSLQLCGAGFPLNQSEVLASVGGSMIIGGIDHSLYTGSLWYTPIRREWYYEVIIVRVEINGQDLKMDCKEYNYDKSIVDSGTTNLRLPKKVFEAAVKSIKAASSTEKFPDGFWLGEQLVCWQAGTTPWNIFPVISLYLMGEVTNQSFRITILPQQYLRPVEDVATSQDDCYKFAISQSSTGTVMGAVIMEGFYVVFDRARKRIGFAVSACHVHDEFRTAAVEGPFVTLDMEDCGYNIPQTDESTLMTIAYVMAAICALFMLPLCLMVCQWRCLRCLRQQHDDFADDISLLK

Consider `COc1cnc(C(=O)Nc2ccc(F)c([C@]3(CF)C[C@@H](C(F)(F)F)OC(N)=N3)c2)cn1` [Example 2, N-(3-((4S,6S)-2-amino-4-(fluoromethyl)-6-(trifluoromethyl)-5,6-dihydro-4H-1,3-oxazin-4-yl)-4-fluorophenyl)-5-methoxypyrazine-2-carboxamide], for which the pIC50 in experiment [1] (average IC50) is less than 3.40. Besides, the inhibition in vivo at 10 mg/kg in experiment [2] (setting [5]) turned out to be 70%; in experiment [2] (setting [6]), 61%.
For the compound `NC1=N[C@](CF)(c2cc(Nc3cc(Cl)ccn3)ccc2F)C[C@@H](C(F)(F)F)O1` [Example 16, (4S,6S)-4-(5-((4-chloropyridin-2-yl)amino)-2-fluorophenyl)-4-(fluoromethyl)-6-(trifluoromethyl)-5,6-dihydro-4H-1,3-oxazin-2-amine], the negative-log IC50 (pIC50) in experiment [1] (setting [7]) is 2.79. Moreover, the inhibition in vivo at 10 mg/kg stood at 83% in experiment [2] (setting [5]) and 87% in experiment [2] (setting [6]).
With `Cc1cc(C#N)cnc1C(=O)Nc1ccc(F)c([C@]2(CF)C[C@@H](C(F)(F)F)OC(N)=N2)c1` [Example 51, N-(3-((4S,6S)-2-amino-4-(fluoromethyl)-6-(trifluoromethyl)-5,6-dihydro-4H-1,3-oxazin-4-yl)-4-fluorophenyl)-5-cyano-3-methylpicolinamide], the inhibition in vivo at 10 mg/kg is 68% in experiment [2] (setting [5]) and 59% in experiment [2] (setting [6]).
Turning to `NC1=N[C@](CF)(c2cc(NC(=O)c3ccc(Br)cn3)ccc2F)C[C@@H](C(F)(F)F)O1` [Example 52, N-(3-((4S,6S)-2-amino-4-(fluoromethyl)-6-(trifluoromethyl)-5,6-dihydro-4H-1,3-oxazin-4-yl)-4-fluorophenyl)-5-bromopicolinamide], the pIC50 in experiment [1] (average IC50) was less than 3.40. Also, the inhibition in vivo at 10 mg/kg in experiment [2] (setting [5]) came out at 61%; in experiment [2] (setting [6]) it was 54%.
In the case of `C[C@@]1(c2cc(NC(=O)c3ncc(C#N)cc3Cl)cc(F)c2F)C[C@@H](C(F)(F)F)OC(N)=N1` [Example 167, N-(3-((4S,6S)-2-amino-4-methyl-6-(trifluoromethyl)-5,6-dihydro-4H-1,3-oxazin-4-yl)-4,5-difluorophenyl)-3-chloro-5-cyanopicolinamide], the pIC50 in experiment [1] (setting [7]) was 3.95. Also, the inhibition in vivo at 10 mg/kg in experiment [2] (setting [5]) came out at 42%; in experiment [2] (setting [6]), 15%.
Take `Cc1cc(NC(=O)c2ccc(C#N)cn2)cc([C@]2(CF)C[C@@H](C(F)(F)F)OC(N)=N2)c1F` [Example 225, N-(3-((4S,6S)-2-amino-4-(fluoromethyl)-6-(trifluoromethyl)-5,6-dihydro-4H-1,3-oxazin-4-yl)-4-fluoro-5-methylphenyl)-5-cyanopicolinamide]: the negative-log IC50 (pIC50) is 7.24 in experiment [3], 7.62 in experiment [4] (setting [8]) and less than 3.40 in experiment [1] (average).
The like results for `COc1cnc(C(=O)Nc2cc(C)c(F)c([C@]3(CF)C[C@@H](C(F)(F)F)OC(N)=N3)c2)c(C)c1` [Example 226, N-(3-((4S,6S)-2-amino-4-(fluoromethyl)-6-(trifluoromethyl)-5,6-dihydro-4H-1,3-oxazin-4-yl)-4-fluoro-5-methylphenyl)-5-methoxy-3-methylpicolinamide] were, in that order, 7.32, 7.31 and 3.11.
On to `Cc1cc(OC(F)F)cnc1C(=O)Nc1cc(C)c(F)c([C@]2(CF)C[C@@H](C(F)(F)F)OC(N)=N2)c1` [Example 228, N-(3-((4S,6S)-2-amino-4-(fluoromethyl)-6-(trifluoromethyl)-5,6-dihydro-4H-1,3-oxazin-4-yl)-4-fluoro-5-methylphenyl)-5-(difluoromethoxy)-3-methylpicolinamide], for which the pIC50 in experiment [3] was 7.49; in experiment [4] (setting [8]) it was 7.55; in experiment [1] (average), 3.11.
For the compound `Cc1cc(Nc2ncnc3cc(Cl)cnc23)cc([C@]2(CF)C[C@@H](C(F)(F)F)OC(N)=N2)c1F` [Example 230, (4S,6S)-4-(5-((7-chloropyrido[3,2-d]pyrimidin-4-yl)amino)-2-fluoro-3-methylphenyl)-4-(fluoromethyl)-6-(trifluoromethyl)-5,6-dihydro-4H-1,3-oxazin-2-amine], the negative logarithm of the IC50 (pIC50) in experiment [3] was 7.31; in experiment [4] (setting [8]), 7.24; in experiment [1] (average), less than 3.40.
With `COc1cccnc1Nc1cc(F)c(F)c([C@]2(C)C[C@@H](C(F)(F)F)OC(N)=N2)c1` [Example 231, (4S,6S)-4-(2,3-difluoro-5-((3-methoxypyridin-2-yl)amino)phenyl)-4-methyl-6-(trifluoromethyl)-5,6-dihydro-4H-1,3-oxazin-2-amine], the results for the pIC50 in experiment [3], in experiment [4] (setting [8]) and in experiment [1] (average) were 6.75, 6.79 and 3.55, respectively.
The like results for `Cc1cc(C#N)cnc1C(=O)Nc1cc(F)c(F)c([C@]2(CF)C[C@@H](C(F)(F)F)OC(N)=N2)c1` [Example 232, N-(3-((4S,6S)-2-amino-4-(fluoromethyl)-6-(trifluoromethyl)-5,6-dihydro-4H-1,3-oxazin-4-yl)-4,5-difluorophenyl)-5-cyano-3-methylpicolinamide] were, in that order, 7.80, 7.26 and 3.25.
For the compound `N#Cc1cnc(C(=O)Nc2cc(F)c(F)c([C@]3(CF)C[C@@H](C(F)(F)F)OC(N)=N3)c2)c(F)c1` [Example 234, N-(3-((4S,6S)-2-amino-4-(fluoromethyl)-6-(trifluoromethyl)-5,6-dihydro-4H-1,3-oxazin-4-yl)-4,5-difluorophenyl)-5-cyano-3-fluoropicolinamide], the negative logarithm of the IC50 (pIC50) in experiment [3] was 7.42; in experiment [4] (setting [9]), 7.24; in experiment [1] (average), less than 3.40.
Take `NC1=N[C@](CF)(c2cc(Oc3cc(-c4ccccc4)cc(Cl)n3)ccc2F)C[C@@H](C(F)(F)F)O1` [Example 235, (4S,6S)-4-(5-((6-chloro-4-phenylpyridin-2-yl)oxy)-2-fluorophenyl)-4-(fluoromethyl)-6-(trifluoromethyl)-5,6-dihydro-4H-1,3-oxazin-2-amine]: the pIC50 in experiment [3] is less than 4.40; in experiment [4] (setting [8]) it was 5.09; in experiment [1] (average), less than 3.88.
For the compound `C[C@@]1(c2cc(NC(=O)c3ccc(C#N)cn3)cc(F)c2Cl)C[C@@H](C(F)(F)F)OC(N)=N1` [Example 238, N-(3-((4S,6S)-2-amino-4-methyl-6-(trifluoromethyl)-5,6-dihydro-4H-1,3-oxazin-4-yl)-4-chloro-5-fluorophenyl)-5-cyanopicolinamide], the values for the pIC50 in experiment [3], in experiment [4] (setting [8]) and in experiment [1] (average) were 8.10, 8.22 and 3.88, respectively.
The like results for `COc1cnc(C(=O)Nc2cc(F)c(F)c([C@]3(C)C[C@@H](C(F)(F)F)OC(N)=N3)c2)c(F)c1` [Example 239, N-(3-((4S,6S)-2-amino-4-methyl-6-(trifluoromethyl)-5,6-dihydro-4H-1,3-oxazin-4-yl)-4,5-difluorophenyl)-3-fluoro-5-methoxypicolinamide] were, in that order, 7.48, 7.92 and 2.93.
For `C[C@@]1(c2cc(NC(=O)c3ncc(Br)cc3Cl)cc(F)c2F)C[C@@H](C(F)(F)F)OC(N)=N1` [Example 240, N-(3-((4S,6S)-2-amino-4-methyl-6-(trifluoromethyl)-5,6-dihydro-4H-1,3-oxazin-4-yl)-4,5-difluorophenyl)-5-bromo-3-chloropicolinamide], the pIC50 in experiment [3] was 7.70; in experiment [4] (setting [9]) it was 7.66; in experiment [1] (average), 3.03.
